Values quoted from earlier work in patent US4721704A, “Potent synthetic atrial peptide analogs” (Peninsula Laboratories, Inc., priority 1986, dated 1988).
Ends that are not written are not given here.

What was measured:
[1] = Atriopeptin III and α-hANP compared with each other
patients = conditions: 400 μg bolus doses

α-human atrial natriuretic polypeptide (SLRRSSCFGGRMDRIGAQSGLGCNSFRY; ends and bridges not checked; cysteine pairing not given here; UniProt P01160 124-151, looked up) [α-hANP, peptide isolated from human atria]
hypotensive, diuretic and natriuretic activities [1]: about comparable
diuretic action (patients): acting as a diuretic
effect on blood pressure (patients): decreasing blood pressure
